Earlier results on 1 molecule are cited in patent publication US9060937B2, “Pharmaceutical compositions” (priority 2006, dated 2015).

For this data set the following is noted: in water.

For the molecule `CCCCC1=NC2(CCCC2)C(=O)N1Cc1ccc(-c2ccccc2-c2nnn[nH]2)cc1` [irbesartan, Irbesartan], the solubility (in general, how much of the substance goes into solution per volume) was below 0.1 µg/mL.
